Experiment: Comparative physical (blend) properties of valsartan and valsartan granules
Format: physicochemical
Experimental: Valsartan was added to molten Lutrol F127 (at about 60-65° C.) under continuous mixing till a uniform semi-solid mixture was obtained. Weighed quantity of microcrystalline cellulose was added to the molten semi-solid mixture under continuous mixing. The blend was then allowed to cool to room temperature and the cooled mass was crushed and passed through 20# sieve.

Bulk density (blend property): 0.12 g/mL | Flow (flow through funnel/orifice): as valsartan did not flow
Compound: CCCCC(=O)N(Cc1ccc(-c2ccccc2-c2nnn[nH]2)cc1)[C@H](C(=O)O)C(C)C [Valsartan]

— patent US20090123543A1, “PHARMACEUTICAL COMPOSITIONS” (priority 2006, published 2009)
